# Source: patent US9771352B2, “Hydroxyalkyl-substituted phenyltriazole derivatives and uses thereof” (BAYER PHARMA AKTIENGESELLSCHAFT, priority 2014, dated 2017)
# Columns and labels:
# human V1a receptor = molecular target: T1, human V1a receptor (Homo sapiens, UniProt P37288); test: Cellular in vitro assay for determining vasopressin receptor activity, V1a receptor cell line (photoprotein luminescence); type: cell-based; details: CHO cell line transfected with human V1a receptor; [Arg8]-vasopressin at EC50; compounds of the invention (Table 1A); read-out: IC50 hV1a
# T1 construct: expressed in transfected cells; host or cells: CHO K1 (ATCC), also stably transfected with modified aequorin
# T1 sequence (P37288 whole entry): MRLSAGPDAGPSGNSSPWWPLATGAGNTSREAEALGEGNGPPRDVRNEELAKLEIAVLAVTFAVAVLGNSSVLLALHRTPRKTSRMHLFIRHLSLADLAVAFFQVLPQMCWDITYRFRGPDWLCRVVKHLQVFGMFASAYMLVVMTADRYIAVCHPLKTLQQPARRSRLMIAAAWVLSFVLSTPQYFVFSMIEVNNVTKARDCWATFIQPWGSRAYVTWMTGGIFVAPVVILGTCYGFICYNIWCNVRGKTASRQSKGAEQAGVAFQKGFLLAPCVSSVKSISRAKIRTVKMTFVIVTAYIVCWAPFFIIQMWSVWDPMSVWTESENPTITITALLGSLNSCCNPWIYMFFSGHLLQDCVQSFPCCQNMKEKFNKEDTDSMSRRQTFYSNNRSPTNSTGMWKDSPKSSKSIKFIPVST
# human V2 receptor = molecular target: T2, human V2 receptor (Homo sapiens, UniProt P30518); test: Cellular in vitro assay for determining vasopressin receptor activity, V2 receptor cell line (CRE-luciferase); type: cell-based; details: CHO cell line transfected with human V2 receptor; [Arg8]-vasopressin at EC50; compounds of the invention (Table 1A); read-out: IC50 hV2
# T2 construct: expressed in transfected cells; host or cells: CHO K1 (ATCC) expressing firefly luciferase under a CRE-responsive promoter
# T2 sequence (P30518 whole entry): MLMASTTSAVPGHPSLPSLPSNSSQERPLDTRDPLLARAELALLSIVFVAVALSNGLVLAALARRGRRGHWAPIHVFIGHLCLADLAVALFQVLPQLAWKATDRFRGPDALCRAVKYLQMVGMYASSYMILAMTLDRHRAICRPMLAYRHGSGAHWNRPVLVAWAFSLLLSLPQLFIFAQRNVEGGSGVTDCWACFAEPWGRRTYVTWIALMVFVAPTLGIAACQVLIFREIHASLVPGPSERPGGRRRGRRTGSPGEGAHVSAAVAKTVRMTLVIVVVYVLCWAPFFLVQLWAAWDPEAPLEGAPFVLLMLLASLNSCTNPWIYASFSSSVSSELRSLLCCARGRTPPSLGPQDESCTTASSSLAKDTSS
# In short: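 CHO K1 cells stably expressing human V2 receptor with CRE-driven firefly luciferase, plated the day before in DMEM/F12 with 2% FCS at 37° C. Receptor activation raises cAMP and luciferase expression; after Triton lysis and luciferin addition, luminescence is read and IC50 values derived.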
# conscious rats = test: Diuresis investigations in conscious rats kept in metabolism cages; type: in vivo, Wistar rats; details: Rattus norvegicus, po, read-out: Urinary volume; for response vs control in vivo at 0.3 mg/kg: dosage p.o. 0.3 mg/kg (Table 2A); for response vs control in vivo at 3 mg/kg: dosage p.o. 3.0 mg/kg (Table 2A); for response vs control in vivo at 1 mg/kg: dosage p.o. 1.0 mg/kg (Table 2A)
# Procedure: Wistar rats (220-450 g body weight) are kept with free access to feed (Altromin) and drinking water. During the experiment, the animals are kept with free access to drinking water for 4 to 8 or up to 24 hours individually in metabolism cages suitable for rats of this weight class (Tecniplast Deutschland GmbH, D-82383 HohenpeiBenberg). At the beginning of the experiment, the animals are administered the test substance in a volume of 1 to 3 ml/kg body weight of a suitable solvent by means of gavage into the stomach. Control animals only receive solvent. Controls and substance tests are carried out in parallel on the same day. Control groups and substance-dose groups each consist of 4 to 8 animals. During the experiment, the urine excreted by the animals is collected continuously in a receiver at the base of the cage. The volume of urine per time unit is determined separately for each animal, and the concentration of urinary electrolytes is measured by standard methods of flame photometry. Before the beginning of the experiment, the body weight of the individual animals is determined.
SMILES,IC50 (human V1a receptor),IC50 (human V2 receptor),response vs control in vivo at 0.3 mg/kg (conscious rats),response vs control in vivo at 3 mg/kg (conscious rats),response vs control in vivo at 1 mg/kg (conscious rats)
"Cc1ccccc1-n1nc(Cn2nc(-c3ccc(Cl)cc3)n(C[C@H](O)C(F)(F)F)c2=O)nc1C(C)O (single isomer, unassigned) [Example 70]",0.5 nM,1.1 nM,139%,595%,
"O=c1n(Cc2nc(CO)n(-c3ccccc3Cl)n2)nc(-c2ccc(Cl)cc2)n1C[C@H](O)C(F)(F)F [Example 4, 5-(4-Chlorophenyl)-2-{[1-(2-chlorophenyl)-5-(hydroxymethyl)-1H-1,2,4-triazol-3-yl]methyl}-4-[(2S)-3,3,3-trifluoro-2-hydroxypropyl]-2,4-dihydro-3H-1,2,4-triazol-3-one]",0.4 nM,5.3 nM,91%,,190%
"O=c1n(Cc2nc(CO)n(-c3cc(F)cc(Cl)c3)n2)nc(-c2ccc(Cl)cc2)n1C[C@H](O)C(F)(F)F [Example 6, 2-{[1-(3-Chloro-5-fluorophenyl)-5-(hydroxymethyl)-1H-1,2,4-triazol-3-yl]methyl}-5-(4-chlorophenyl)-4-[(2S)-3,3,3-trifluoro-2-hydroxypropyl]-2,4-dihydro-3H-1,2,4-triazol-3-one]",10.6 nM,1.7 nM,132%,,439%
"C[C@H](O)c1nc(Cn2nc(-c3ccc(Cl)cc3)n(C[C@H](O)C(F)(F)F)c2=O)nn1-c1cccc(F)c1 [Example 76, 5-(4-Chlorophenyl)-2-({1-(3-fluorophenyl)-5-[(1S)-1-hydroxyethyl]-1H-1,2,4-triazol-3-yl}-methyl)-4-[(2S)-3,3,3-trifluoro-2-hydroxypropyl]-2,4-dihydro-3H-1,2,4-triazol-3-one]",2.5 nM,5.1 nM,350%,,
"C[C@H](O)c1nc(Cn2nc(-c3ccc(Cl)cc3)n(C[C@H](O)C(F)(F)F)c2=O)nn1-c1ccccc1Cl [Example 82, 5-(4-Chlorophenyl)-2-({1-(2-chlorophenyl)-5-[(1S)-1-hydroxyethyl]-1H-1,2,4-triazol-3-yl}-methyl)-4-[(2S)-3,3,3-trifluoro-2-hydroxypropyl]-2,4-dihydro-3H-1,2,4-triazol-3-one]",0.7 nM,2.3 nM,220%,828%,

# More lines, main results first:
IC50 (human V1a receptor),IC50 (human V2 receptor),SMILES,response vs control in vivo at 0.3 mg/kg (conscious rats),response vs control in vivo at 3 mg/kg (conscious rats),response vs control in vivo at 1 mg/kg (conscious rats)
6 nM,2.5 nM,"O=c1n(Cc2nc(CO)n(-c3cccc(Cl)c3)n2)nc(-c2ccc(Cl)cc2)n1C[C@H](O)C(F)(F)F [Example 1, 5-(4-Chlorophenyl)-2-{[1-(3-chlorophenyl)-5-(hydroxymethyl)-1H-1,2,4-triazol-3-yl]methyl}-4-[(2S)-3,3,3-trifluoro-2-hydroxypropyl]-2,4-dihydro-3H-1,2,4-triazol-3-one]",194%,588%,
5 nM,8.7 nM,"O=c1n(Cc2nc(CO)n(-c3cccc(F)c3)n2)nc(-c2ccc(Cl)cc2)n1C[C@H](O)C(F)(F)F [Example 2, 5-(4-Chlorophenyl)-2-{[1-(3-fluorophenyl)-5-(hydroxymethyl)-1H-1,2,4-triazol-3-yl]methyl}-4-[(2S)-3,3,3-trifluoro-2-hydroxypropyl]-2,4-dihydro-3H-1,2,4-triazol-3-one]",194%,588%,
1 nM,5.6 nM,"COc1ccccc1-n1nc(Cn2nc(-c3ccc(Cl)cc3)n(C[C@H](O)C(F)(F)F)c2=O)nc1CO [Example 3, 5-(4-Chlorophenyl)-2-{[5-(hydroxymethyl)-1-(2-methoxyphenyl)-1H-1,2,4-triazol-3-yl]methyl}-4-[(2S)-3,3,3-trifluoro-2-hydroxypropyl]-2,4-dihydro-3H-1,2,4-triazol-3-one]",89%,450%,
0.4 nM,1.8 nM,"Cc1ccccc1-n1nc(Cn2nc(-c3ccc(Cl)cc3)n(C[C@H](O)C(F)(F)F)c2=O)nc1CO [Example 5, 5-(4-Chlorophenyl)-2-{[5-(hydroxymethyl)-1-(2-methylphenyl)-1H-1,2,4-triazol-3-yl]methyl}-4-[(2S)-3,3,3-trifluoro-2-hydroxypropyl]-2,4-dihydro-3H-1,2,4-triazol-3-one]",166%,,438%
3.6 nM,1.7 nM,"C[C@H](O)c1nc(Cn2nc(-c3ccc(Cl)cc3)n(C[C@H](O)C(F)(F)F)c2=O)nn1-c1cccc(Cl)c1 [Example 79, 5-(4-Chlorophenyl)-2-({1-(3-chlorophenyl)-5-[(1S)-1-hydroxyethyl]-1H-1,2,4-triazol-3-yl}-methyl)-4-[(2S)-3,3,3-trifluoro-2-hydroxypropyl]-2,4-dihydro-3H-1,2,4-triazol-3-one]",612%,,
1 nM,6.7 nM,"C[C@@H](O)c1nc(Cn2nc(-c3ccc(Cl)cc3)n(C[C@H](O)C(F)(F)F)c2=O)nn1-c1ccccc1Cl [Example 83, 5-(4-Chlorophenyl)-2-({1-(2-chlorophenyl)-5-[(1R)-1-hydroxyethyl]-1H-1,2,4-triazol-3-yl}-methyl)-4-[(2S)-3,3,3-trifluoro-2-hydroxypropyl]-2,4-dihydro-3H-1,2,4-triazol-3-one]",279%,,
